For series [1], the system named is Recombinant adenovirus expressing enhanced GFP. The series can be described thus: Recovered adenoviral activity after 7 days at 4° C. or 37° C. with glycinergics or SMM (Example 4). The class given is cell-based. The following applies: one week at 37° C.
Another series has as its system white cell fraction. The series is described as follows: White cell viability in human blood diluted with excipients, Guava Viacount (Example 18). The class given is cell-based. The following applies: equal volume dilution, 25° C. for 30 minutes.
[2] abbreviates: 0.07 M, sole excipient (no sugars).
[3] abbreviates: 0.07 M, with sugars (1M Sucrose, 100 mM Raffinose).
[4] abbreviates: 0.70 M, sole excipient (no sugars).
Setting [5] is: 0.70 M, with sugars (1M Sucrose, 100 mM Raffinose).

For the molecule `CN(C)CC(=O)O` [DMG, N,N-Dimethylglycine], the recovered viral activity in series [1] (setting [2]) is 27%; in series [1] (setting [3]), 37%; in series [1] (setting [4]) it was 41%; in series [1] (setting [5]), 52%. Further, the “effect on white cell viability in the blood sample” value in the series on white cell fraction is listed as “no adverse effects”.

For `C[S+](C)CC[C@H](N)C(=O)O` [SMM, S-methyl-L-methionine], the recovered viral activity in series [1] (setting [2]) is given as 33%; in series [1] (0.23 M, sole excipient (no sugars)), 43%.

As for `C[N+](C)(C)CC(=O)O` [TMG, N,N,N-trimethylglycine], the recovered viral activity in series [1] (setting [2]) is 21%; in series [1] (setting [3]), 45%; in series [1] (setting [4]) it was 45%; in series [1] (setting [5]), 38.7%.

For the molecule `NCC(=O)O` [glycine, Glycine, reference compound], the recovered viral activity in series [1] (setting [2]) was 29%; in series [1] (setting [3]), 41%; in series [1] (setting [4]) it was 45%; in series [1] (setting [5]), 54%.

On to `CNCC(=O)O` [sarcosine, N-Methyl-glycine], for which the recovered viral activity is 29% in series [1] (setting [2]), 37% in series [1] (setting [3]), 49% in series [1] (setting [4]) and 56% in series [1] (setting [5]).

These data come from patent US10716859B2, “Excipients for stabilising viral particles, polypeptides or biological material” (priority 2010, dated 2020).
